Results published in ChEMBL document CHEMBL3991601, “The target landscape of clinical kinase drugs” (Science, 2017).
Calls of active or inactive are those of the source.

Columns and labels:
[1] = target: Rho-associated protein kinase 1 (Homo sapiens, UniProt Q13464)
[2] = target: Serine/threonine-protein kinase Nek7 (Homo sapiens, UniProt Q8TDX7)
[3] = target: Dual specificity protein kinase CLK4 (Homo sapiens, UniProt Q9HAZ1)
[4] = target: Dual specificity testis-specific protein kinase 2 (Homo sapiens, UniProt Q96S53)
[5] = target: Dual specificity protein kinase CLK3 (Homo sapiens, UniProt P49761); format: subcellular, K-562, COLO 205, SK-N-BE(2) and MV-4-11, Cell lysate; settings: read-out: Kd apparent
[6] = target: Choline-phosphate cytidylyltransferase A (Homo sapiens, UniProt P49585)
[7] = target: Serine/threonine-protein kinase B-raf (Homo sapiens, UniProt P15056)
[8] = target: Uncharacterized aarF domain-containing protein kinase 5 (Homo sapiens, UniProt Q3MIX3)
[9] = target: T1, Cysteine--tRNA ligase, cytoplasmic (Homo sapiens, UniProt P49589)
T1 sequence (P49589 whole entry): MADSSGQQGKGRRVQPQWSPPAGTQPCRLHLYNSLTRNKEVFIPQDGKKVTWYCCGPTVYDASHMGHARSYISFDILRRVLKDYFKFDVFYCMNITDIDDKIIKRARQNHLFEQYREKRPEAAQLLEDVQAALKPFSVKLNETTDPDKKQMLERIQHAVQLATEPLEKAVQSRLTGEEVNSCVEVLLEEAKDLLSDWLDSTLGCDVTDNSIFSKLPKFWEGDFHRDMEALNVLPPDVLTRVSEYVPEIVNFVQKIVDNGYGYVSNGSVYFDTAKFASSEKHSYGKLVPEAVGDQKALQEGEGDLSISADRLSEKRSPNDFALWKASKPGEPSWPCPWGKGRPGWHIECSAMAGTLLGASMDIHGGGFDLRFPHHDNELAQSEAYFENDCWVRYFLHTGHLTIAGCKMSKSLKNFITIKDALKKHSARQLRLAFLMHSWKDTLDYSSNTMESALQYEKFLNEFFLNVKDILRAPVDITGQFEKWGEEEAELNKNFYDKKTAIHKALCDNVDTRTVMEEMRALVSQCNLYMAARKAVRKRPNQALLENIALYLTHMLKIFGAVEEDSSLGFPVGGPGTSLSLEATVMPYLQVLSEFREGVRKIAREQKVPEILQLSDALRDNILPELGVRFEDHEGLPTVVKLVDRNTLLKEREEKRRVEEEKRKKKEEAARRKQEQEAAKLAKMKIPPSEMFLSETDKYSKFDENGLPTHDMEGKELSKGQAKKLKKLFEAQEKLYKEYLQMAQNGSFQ

[10] = target: Serine/threonine-protein kinase ATR (Homo sapiens, UniProt Q13535)
[11] = target: Serine/threonine-protein kinase PLK1 (Homo sapiens, UniProt P53350)
[12] = target: Serine/threonine-protein kinase 24 (Homo sapiens, UniProt Q9Y6E0)
[13] = target: Phosphatidylethanolamine-binding protein 1 (Homo sapiens, UniProt P30086)
UMP-CMP kinase = target: T2, UMP-CMP kinase (Homo sapiens, UniProt P30085)
T2 sequence (P30085 whole entry): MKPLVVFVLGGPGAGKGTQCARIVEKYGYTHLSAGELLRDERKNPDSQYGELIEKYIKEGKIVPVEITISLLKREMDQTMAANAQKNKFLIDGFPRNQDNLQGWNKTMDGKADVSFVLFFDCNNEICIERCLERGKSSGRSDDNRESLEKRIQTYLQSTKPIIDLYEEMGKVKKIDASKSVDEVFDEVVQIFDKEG

Measured: Kd
Further: in the data inactive means no Kd found up to 30 µM.

Rho-associated protein kinase 1, sequence (Q13464 whole entry): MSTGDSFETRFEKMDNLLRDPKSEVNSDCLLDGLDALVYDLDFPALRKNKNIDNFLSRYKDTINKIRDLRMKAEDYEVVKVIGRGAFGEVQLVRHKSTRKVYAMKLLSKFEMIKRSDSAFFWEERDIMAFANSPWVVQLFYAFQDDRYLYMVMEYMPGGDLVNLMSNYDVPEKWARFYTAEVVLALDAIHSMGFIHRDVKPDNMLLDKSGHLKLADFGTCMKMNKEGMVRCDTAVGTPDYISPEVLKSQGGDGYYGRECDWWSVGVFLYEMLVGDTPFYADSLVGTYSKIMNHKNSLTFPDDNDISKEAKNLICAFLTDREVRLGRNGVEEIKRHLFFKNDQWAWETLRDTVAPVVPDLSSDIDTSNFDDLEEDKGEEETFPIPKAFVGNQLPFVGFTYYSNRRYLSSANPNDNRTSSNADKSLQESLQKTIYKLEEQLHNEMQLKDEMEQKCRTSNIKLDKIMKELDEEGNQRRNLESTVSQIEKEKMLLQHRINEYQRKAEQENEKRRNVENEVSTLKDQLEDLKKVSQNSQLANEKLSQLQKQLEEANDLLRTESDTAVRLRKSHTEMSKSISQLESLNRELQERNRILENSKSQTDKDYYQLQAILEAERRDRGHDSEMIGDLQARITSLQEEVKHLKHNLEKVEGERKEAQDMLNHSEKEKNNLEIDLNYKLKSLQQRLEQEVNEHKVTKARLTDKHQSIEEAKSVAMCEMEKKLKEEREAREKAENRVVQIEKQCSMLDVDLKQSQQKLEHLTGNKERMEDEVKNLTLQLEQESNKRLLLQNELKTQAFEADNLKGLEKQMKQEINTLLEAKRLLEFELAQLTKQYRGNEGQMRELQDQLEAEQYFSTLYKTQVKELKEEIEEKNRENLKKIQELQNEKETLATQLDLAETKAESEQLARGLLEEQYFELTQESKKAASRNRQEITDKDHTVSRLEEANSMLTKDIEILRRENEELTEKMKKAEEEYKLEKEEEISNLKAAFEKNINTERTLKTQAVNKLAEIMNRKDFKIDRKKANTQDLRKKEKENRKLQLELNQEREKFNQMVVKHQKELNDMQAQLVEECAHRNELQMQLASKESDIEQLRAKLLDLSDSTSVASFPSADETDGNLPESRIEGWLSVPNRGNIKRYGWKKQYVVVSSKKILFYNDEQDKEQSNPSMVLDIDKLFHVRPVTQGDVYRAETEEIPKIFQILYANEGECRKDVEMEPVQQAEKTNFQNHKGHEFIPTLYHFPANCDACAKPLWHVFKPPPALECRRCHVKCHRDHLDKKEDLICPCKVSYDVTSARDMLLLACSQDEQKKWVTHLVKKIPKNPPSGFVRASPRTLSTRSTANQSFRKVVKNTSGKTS
Serine/threonine-protein kinase Nek7, sequence (Q8TDX7 whole entry): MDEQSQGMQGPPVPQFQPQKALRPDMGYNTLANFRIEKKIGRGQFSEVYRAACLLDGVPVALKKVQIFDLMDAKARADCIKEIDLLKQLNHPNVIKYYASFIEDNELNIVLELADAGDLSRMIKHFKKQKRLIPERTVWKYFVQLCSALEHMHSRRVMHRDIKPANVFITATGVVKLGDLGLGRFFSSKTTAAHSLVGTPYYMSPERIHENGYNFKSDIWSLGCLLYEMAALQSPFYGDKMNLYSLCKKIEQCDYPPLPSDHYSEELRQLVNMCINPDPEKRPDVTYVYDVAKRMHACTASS
Choline-phosphate cytidylyltransferase A, sequence (P49585 whole entry): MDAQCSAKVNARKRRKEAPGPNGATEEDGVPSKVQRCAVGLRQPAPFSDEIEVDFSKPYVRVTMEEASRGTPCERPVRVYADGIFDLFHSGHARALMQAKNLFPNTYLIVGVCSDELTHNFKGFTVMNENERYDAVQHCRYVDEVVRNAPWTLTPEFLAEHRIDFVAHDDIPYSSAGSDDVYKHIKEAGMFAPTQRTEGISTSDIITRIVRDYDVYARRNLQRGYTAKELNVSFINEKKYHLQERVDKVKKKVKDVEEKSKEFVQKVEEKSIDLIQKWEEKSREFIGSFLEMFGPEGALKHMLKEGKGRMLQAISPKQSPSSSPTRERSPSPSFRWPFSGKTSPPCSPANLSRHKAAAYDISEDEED
Serine/threonine-protein kinase 24, sequence (Q9Y6E0 whole entry): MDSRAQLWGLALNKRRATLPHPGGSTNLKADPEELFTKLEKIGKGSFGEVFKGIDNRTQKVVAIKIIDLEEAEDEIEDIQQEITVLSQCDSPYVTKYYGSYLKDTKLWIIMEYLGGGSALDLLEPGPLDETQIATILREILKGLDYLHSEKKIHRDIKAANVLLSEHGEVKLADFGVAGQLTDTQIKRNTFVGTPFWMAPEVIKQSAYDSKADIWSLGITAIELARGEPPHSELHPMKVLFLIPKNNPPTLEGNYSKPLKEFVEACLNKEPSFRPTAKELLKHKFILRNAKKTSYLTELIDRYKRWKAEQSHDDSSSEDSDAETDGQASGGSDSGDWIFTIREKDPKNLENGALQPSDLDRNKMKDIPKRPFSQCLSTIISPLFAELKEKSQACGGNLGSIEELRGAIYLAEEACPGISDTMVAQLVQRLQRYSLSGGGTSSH
Serine/threonine-protein kinase B-raf, sequence (P15056 whole entry, the tested form may be a part): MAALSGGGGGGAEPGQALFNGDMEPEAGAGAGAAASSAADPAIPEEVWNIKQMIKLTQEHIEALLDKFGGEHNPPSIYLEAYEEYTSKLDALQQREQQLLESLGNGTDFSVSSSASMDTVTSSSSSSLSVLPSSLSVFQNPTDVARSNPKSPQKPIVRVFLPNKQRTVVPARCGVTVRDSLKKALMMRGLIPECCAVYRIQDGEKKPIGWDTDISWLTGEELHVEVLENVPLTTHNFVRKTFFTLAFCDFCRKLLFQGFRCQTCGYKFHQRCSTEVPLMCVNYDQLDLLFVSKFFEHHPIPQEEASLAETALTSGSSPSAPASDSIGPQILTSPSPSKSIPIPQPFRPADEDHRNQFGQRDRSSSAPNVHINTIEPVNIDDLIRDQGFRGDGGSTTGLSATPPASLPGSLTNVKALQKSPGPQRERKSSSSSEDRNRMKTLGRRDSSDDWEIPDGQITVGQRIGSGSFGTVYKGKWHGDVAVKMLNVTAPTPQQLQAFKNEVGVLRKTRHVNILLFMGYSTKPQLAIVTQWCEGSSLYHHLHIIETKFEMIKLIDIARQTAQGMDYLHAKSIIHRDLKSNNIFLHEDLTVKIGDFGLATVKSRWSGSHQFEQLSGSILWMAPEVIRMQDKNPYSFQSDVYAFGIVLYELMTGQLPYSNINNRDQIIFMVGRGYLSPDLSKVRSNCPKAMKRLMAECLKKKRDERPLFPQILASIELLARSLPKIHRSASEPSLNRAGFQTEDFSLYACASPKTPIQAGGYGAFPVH
Dual specificity testis-specific protein kinase 2, sequence (Q96S53 whole entry): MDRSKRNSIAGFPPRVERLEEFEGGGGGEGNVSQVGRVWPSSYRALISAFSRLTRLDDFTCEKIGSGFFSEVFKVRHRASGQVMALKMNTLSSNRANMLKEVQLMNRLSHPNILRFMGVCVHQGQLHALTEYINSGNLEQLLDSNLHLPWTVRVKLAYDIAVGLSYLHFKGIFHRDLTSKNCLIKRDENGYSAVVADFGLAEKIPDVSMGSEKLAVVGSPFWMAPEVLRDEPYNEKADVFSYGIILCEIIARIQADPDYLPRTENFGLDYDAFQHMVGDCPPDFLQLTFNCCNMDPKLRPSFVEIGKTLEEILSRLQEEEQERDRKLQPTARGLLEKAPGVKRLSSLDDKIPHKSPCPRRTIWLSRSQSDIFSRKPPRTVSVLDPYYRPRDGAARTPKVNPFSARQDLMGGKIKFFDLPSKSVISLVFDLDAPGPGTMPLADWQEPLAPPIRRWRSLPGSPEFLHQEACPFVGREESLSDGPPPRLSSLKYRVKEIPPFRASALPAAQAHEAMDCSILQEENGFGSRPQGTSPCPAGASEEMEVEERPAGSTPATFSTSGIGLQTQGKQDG
Dual specificity protein kinase CLK4, sequence (Q9HAZ1 whole entry): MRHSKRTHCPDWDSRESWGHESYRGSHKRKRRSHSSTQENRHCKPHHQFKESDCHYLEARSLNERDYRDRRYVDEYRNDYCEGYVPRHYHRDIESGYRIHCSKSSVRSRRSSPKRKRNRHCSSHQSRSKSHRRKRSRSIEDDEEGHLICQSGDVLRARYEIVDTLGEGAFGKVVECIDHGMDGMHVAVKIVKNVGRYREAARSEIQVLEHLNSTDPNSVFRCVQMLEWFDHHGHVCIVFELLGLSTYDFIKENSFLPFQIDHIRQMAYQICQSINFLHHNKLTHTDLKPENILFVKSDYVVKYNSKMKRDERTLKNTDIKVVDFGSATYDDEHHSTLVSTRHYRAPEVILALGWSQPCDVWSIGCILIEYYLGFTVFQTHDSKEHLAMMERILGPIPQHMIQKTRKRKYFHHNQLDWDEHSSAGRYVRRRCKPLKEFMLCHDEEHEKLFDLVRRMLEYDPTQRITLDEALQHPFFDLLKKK
Phosphatidylethanolamine-binding protein 1, sequence (P30086 whole entry): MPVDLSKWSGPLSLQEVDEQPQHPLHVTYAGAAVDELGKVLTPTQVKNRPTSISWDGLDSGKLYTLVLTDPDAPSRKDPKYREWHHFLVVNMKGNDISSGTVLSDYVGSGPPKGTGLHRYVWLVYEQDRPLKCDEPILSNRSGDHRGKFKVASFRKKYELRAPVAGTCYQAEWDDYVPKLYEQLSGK
Dual specificity protein kinase CLK3, sequence (P49761 whole entry): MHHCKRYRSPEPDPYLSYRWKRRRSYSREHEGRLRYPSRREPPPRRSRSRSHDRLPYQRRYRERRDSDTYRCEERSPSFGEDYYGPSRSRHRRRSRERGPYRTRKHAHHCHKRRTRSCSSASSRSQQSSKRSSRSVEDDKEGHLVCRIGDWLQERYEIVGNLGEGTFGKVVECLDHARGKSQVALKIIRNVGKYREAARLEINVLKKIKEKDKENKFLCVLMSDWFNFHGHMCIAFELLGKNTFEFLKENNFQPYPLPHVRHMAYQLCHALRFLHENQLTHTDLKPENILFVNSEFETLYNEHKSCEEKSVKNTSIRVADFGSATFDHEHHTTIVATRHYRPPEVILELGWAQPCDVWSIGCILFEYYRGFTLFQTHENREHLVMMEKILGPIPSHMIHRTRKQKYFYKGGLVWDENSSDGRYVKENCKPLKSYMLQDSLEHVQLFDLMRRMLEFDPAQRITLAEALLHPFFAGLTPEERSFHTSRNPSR

CCn1cc(-c2ccnc3[nH]c(-c4cccc(CN(C)C)c4)cc23)c(-c2ccc(NC(=O)N(C)C)cc2)n1 [GSK-1070916]
inactive: [1] > 30 µM | [2] > 30 µM | [3] > 30 µM | [4] > 30 µM | [5] > 30 µM | [6] > 30 µM | [7] > 30 µM | [8] > 30 µM | [9] > 30 µM

CC(C)c1cc(CNc2nc(Nc3cc(C4CC4)[nH]n3)cc(N3CCN(C)CC3)n2)on1 [XL-228]
inactive: [1] > 30 µM | [2] > 30 µM | [10] > 30 µM | [3] > 30 µM | [6] > 30 µM | [11] > 30 µM | [7] > 30 µM | [12] > 30 µM | [9] > 30 µM | [13] > 30 µM

Cc1cc(C(=O)NOCCO)c(Nc2ccc(I)cc2F)n(C)c1=O [AZD-8330]
inactive: [1] > 30 µM | [2] > 30 µM | UMP-CMP kinase > 30 µM | [5] > 30 µM | [6] > 30 µM | [11] > 30 µM | [7] > 30 µM | [8] > 30 µM | [9] > 30 µM

C#Cc1cccc(Nc2ncnc3cc(OC)c(OCCCCCCC(=O)NO)cc23)c1 [CUDC-101]
inactive: [1] > 30 µM | [3] > 30 µM | [5] > 30 µM | [6] > 30 µM | [11] > 30 µM | [7] > 30 µM | [8] > 30 µM | [9] > 30 µM | [13] > 30 µM

COc1ccc(S(=O)(=O)N(C(C)=O)c2ccccc2/C=C/c2cc[n+]([O-])cc2)cc1 [HMN-214]
inactive: [1] > 30 µM | [2] > 30 µM | [10] > 30 µM | [3] > 30 µM | [4] > 30 µM | [5] > 30 µM | [6] > 30 µM | [11] > 30 µM | [7] > 30 µM | [12] > 30 µM | [8] > 30 µM

CNC(=O)c1cccc2cc(Oc3ccnc4cc(OCC5(N)CC5)c(OC)cc34)ccc12 [LUCITANIB]
inactive: [2] > 30 µM | [10] > 30 µM | UMP-CMP kinase > 30 µM | [6] > 30 µM | [11] > 30 µM | [12] > 30 µM | [9] > 30 µM | [13] > 30 µM

O=C(Nc1c[nH]nc1-c1nc2cc(CN3CCOCC3)ccc2[nH]1)NC1CC1 [AT-9283]
inactive: [1] > 30 µM | [2] > 30 µM | UMP-CMP kinase > 30 µM | [4] > 30 µM | [5] > 30 µM | [6] > 30 µM | [11] > 30 µM | [7] > 30 µM | [8] > 30 µM | [9] > 30 µM | [13] > 30 µM
